Assay results reported in ChEMBL document CHEMBL2311489 (Eur J Med Chem, 2013).
Calls of active or inactive are those of the source. The rule behind the calls is not given here.

Columns and labels:
[1] = molecular target: T1, 5-hydroxytryptamine receptor 1A (Homo sapiens, UniProt P08908); assay: biochemical
T1 sequence (P08908 whole entry): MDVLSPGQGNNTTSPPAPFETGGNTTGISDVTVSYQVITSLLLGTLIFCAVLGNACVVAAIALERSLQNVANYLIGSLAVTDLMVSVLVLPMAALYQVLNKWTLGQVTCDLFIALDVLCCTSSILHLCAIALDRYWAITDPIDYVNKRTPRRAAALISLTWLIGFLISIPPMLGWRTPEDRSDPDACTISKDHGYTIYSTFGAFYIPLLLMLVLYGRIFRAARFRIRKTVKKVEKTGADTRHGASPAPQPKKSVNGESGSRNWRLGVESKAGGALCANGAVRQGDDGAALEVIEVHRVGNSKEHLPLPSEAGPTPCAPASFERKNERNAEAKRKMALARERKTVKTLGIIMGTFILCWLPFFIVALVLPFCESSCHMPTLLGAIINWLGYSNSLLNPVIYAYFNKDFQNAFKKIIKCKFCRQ

[2] = molecular target: T2, 5-hydroxytryptamine receptor 7 (Homo sapiens, UniProt P34969); assay: biochemical
T2 sequence (P34969 whole entry): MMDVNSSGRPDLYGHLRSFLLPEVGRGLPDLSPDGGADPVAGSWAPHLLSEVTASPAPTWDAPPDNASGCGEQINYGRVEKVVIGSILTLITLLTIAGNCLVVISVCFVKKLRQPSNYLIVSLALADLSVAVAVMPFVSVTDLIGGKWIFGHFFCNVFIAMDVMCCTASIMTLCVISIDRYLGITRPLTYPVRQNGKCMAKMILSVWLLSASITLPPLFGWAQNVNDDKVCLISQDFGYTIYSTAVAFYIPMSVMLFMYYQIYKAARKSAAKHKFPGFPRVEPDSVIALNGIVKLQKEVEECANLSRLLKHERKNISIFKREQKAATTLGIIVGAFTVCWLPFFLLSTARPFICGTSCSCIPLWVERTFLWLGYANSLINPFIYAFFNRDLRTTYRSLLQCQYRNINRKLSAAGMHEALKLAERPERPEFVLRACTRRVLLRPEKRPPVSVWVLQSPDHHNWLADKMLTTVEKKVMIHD

[3] = molecular target: T3, 5-hydroxytryptamine receptor 6 (Homo sapiens, UniProt P50406); assay: biochemical
T3 sequence (P50406 whole entry): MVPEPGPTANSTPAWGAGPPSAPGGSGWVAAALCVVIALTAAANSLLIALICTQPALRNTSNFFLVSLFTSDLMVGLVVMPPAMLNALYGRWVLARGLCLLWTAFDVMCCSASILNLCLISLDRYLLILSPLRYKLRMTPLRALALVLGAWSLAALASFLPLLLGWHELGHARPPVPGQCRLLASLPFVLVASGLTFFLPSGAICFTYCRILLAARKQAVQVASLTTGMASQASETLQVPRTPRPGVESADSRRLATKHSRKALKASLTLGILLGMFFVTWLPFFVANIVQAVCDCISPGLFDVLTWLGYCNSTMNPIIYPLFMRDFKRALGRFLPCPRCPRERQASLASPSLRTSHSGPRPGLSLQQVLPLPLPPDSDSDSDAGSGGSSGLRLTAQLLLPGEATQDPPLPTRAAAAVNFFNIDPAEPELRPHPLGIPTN
Description: (§1) Displacement of [3H]-LSD from human 5HT6 receptor expressed in HEK293 after 1 hr

[4] = molecular target: 5-hydroxytryptamine receptor 2A (Homo sapiens, UniProt P28223); assay: biochemical
5-hydroxytryptamine receptor 2A, sequence (P28223 whole entry): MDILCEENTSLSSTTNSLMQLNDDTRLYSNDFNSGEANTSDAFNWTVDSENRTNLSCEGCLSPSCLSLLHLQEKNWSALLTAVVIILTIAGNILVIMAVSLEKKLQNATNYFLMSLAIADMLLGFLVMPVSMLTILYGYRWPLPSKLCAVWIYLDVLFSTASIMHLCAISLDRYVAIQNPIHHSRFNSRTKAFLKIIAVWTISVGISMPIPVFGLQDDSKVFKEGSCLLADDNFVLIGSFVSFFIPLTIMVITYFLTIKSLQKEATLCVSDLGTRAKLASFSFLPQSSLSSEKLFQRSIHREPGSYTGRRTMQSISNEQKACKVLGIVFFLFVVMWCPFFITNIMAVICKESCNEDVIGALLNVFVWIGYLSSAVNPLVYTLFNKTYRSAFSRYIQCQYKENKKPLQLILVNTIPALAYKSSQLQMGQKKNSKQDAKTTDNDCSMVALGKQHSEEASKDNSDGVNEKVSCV
Description: Displacement of [3H]-ketanserin from human 5HT2A receptor expressed in HEK293 after 1.5 hrs

[5] = molecular target: D(3) dopamine receptor (Homo sapiens) (UniProt P35462); assay: Displacement of [3H]-methylspiperone from human dopamine D3 receptor expressed in HEK293 at 10^-6 M after 1 hr; assay type: cell-based
D(3) dopamine receptor (Homo sapiens), sequence (P35462 whole entry): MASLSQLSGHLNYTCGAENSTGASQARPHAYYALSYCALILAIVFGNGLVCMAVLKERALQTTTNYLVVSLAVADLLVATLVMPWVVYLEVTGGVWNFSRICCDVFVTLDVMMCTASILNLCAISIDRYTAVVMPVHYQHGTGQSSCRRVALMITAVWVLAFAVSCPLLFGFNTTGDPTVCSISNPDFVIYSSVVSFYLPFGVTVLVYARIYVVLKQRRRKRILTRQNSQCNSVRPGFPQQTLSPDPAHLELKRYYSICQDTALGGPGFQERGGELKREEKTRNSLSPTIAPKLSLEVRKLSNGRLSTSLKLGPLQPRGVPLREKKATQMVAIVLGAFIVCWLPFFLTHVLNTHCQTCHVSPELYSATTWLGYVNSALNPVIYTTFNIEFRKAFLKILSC

[6] = system: Mus musculus; assay: Antipsychotic activity in Swiss albino mouse assessed as inhibition of apomorphine-induced climbing behavior at 5 mg/kg, ip administered 10 mins before apomorphine-challenge measured after 2 mins; assay type: functional; conditions: route intraperitoneal
[7] = system: Mus musculus; assay: Antidepressant activity in Swiss albino mouse assessed as reduction of immobility time at 20 mg/kg, ip measured during last 4 mins of a 6 mins test session by forced swim test; assay type: functional; design: scale not given: the % may be the effect or the level left; conditions: route intraperitoneal
[8] = molecular target: T2, 5-hydroxytryptamine receptor 7
[9] = molecular target: Sodium-dependent serotonin transporter (Rattus norvegicus, UniProt P31652); assay: biochemical
Sodium-dependent serotonin transporter, sequence (P31652 whole entry): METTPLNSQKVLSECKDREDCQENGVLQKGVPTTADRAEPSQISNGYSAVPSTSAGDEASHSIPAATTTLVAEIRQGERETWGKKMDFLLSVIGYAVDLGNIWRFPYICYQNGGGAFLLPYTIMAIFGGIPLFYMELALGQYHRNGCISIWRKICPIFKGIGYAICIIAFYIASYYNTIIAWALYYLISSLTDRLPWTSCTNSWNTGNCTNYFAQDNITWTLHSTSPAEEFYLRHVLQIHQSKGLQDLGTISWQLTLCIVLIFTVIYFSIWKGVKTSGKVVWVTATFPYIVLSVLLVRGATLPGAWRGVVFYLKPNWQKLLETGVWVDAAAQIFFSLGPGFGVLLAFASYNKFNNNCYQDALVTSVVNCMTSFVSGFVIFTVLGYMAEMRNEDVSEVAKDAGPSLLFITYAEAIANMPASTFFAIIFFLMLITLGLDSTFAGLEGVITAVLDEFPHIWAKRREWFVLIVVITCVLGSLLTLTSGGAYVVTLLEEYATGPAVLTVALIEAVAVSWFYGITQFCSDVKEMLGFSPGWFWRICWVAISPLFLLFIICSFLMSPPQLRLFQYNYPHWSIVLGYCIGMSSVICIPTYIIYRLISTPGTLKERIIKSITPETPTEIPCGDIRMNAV

[10] = species: Mus musculus; assay: animal or person; conditions: Swiss albino, ip, read-out: ID50
Description: Antipsychotic activity in ip dosed Swiss albino mouse assessed as inhibition of apomorphine-induced climbing behavior administered 10 mins before apomorphine-challenge measured after 2 mins

[11] = molecular target: T1, 5-hydroxytryptamine receptor 1A
Description: Agonist activity at human 5HT1A receptor expressed in CHO cells assessed as cAMP accumulation

[12] = molecular target: D(3) dopamine receptor (Homo sapiens) (UniProt P35462); assay: Displacement of [3H]-methylspiperone from human dopamine D3 receptor expressed in HEK293 at 10^-7 M after 1 hr; assay type: cell-based
[13] = species: Mus musculus; assay: animal or person; conditions: Swiss albino, ip, 20 min, read-out: ID50
Description: Antipsychotic activity in ip dosed Swiss albino mouse assessed as inhibition of (+/-)DOI-induced head twitch response after 20 mins

[14] = system: Mus musculus; assay: Antidepressant activity in Swiss albino mouse assessed as reduction of immobility time at 10 mg/kg, ip measured during last 4 mins of a 6 mins test session by forced swim test; assay type: functional; design: scale not given: the % may be the effect or the level left; conditions: route intraperitoneal
[15] = molecular target: D(2) dopamine receptor (Homo sapiens, UniProt P14416); assay: biochemical; assay type: cell-based, HEK293
D(2) dopamine receptor, sequence (P14416 whole entry): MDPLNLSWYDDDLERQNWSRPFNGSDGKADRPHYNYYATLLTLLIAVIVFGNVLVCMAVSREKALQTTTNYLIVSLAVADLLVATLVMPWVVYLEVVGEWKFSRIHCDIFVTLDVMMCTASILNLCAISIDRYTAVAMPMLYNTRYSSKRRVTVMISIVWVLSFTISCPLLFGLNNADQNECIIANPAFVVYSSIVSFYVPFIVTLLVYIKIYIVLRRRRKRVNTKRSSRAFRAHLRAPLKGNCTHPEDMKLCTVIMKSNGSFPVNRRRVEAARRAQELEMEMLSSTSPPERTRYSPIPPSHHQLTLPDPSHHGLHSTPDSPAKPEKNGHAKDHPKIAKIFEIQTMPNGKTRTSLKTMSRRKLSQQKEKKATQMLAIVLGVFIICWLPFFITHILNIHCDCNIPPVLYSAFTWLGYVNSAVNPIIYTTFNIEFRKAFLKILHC
Description: Displacement of [3H]-raclopride from human dopamine D2L receptor expressed in HEK293 after 1 hr

[16] = system: Mus musculus; assay: Antipsychotic activity in CD1 mouse assessed as inhibition MK-801-evoked hyperactivity at 2.5 to 20 mg/kg, ip after 30 mins; assay type: functional, organism-based
[17] = molecular target: T4, Adrenergic receptor alpha-1 (Rattus norvegicus, UniProt P15823+P23944+P43140)
T4 sequence (P15823 whole entry): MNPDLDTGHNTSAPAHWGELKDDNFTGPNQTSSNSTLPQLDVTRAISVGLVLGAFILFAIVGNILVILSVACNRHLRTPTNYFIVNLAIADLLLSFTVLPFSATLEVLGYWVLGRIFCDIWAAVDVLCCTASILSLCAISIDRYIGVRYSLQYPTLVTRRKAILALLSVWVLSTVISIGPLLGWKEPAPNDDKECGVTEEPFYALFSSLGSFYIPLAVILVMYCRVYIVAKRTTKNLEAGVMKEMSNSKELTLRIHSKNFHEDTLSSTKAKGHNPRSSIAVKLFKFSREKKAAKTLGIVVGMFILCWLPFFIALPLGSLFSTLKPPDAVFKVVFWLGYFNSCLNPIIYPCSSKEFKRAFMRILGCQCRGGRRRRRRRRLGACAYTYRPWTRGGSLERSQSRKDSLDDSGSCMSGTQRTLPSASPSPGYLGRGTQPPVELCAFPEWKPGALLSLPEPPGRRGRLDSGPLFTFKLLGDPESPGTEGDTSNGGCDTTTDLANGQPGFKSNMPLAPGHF
T4 sequence (P23944 whole entry): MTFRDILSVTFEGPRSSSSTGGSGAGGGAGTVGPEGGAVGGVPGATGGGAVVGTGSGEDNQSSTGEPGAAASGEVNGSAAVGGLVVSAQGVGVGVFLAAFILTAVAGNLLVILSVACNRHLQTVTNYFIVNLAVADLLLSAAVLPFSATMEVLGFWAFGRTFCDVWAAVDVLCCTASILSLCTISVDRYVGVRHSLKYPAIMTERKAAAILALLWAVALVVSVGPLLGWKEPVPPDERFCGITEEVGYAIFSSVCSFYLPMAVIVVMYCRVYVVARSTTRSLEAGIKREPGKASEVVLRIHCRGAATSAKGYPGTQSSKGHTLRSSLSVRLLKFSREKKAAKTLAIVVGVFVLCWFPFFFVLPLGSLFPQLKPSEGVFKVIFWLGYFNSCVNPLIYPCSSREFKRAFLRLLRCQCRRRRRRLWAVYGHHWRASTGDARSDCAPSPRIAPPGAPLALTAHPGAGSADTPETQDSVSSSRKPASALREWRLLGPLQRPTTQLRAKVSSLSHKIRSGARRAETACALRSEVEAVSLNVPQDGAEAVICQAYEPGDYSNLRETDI
T4 sequence (P43140 whole entry): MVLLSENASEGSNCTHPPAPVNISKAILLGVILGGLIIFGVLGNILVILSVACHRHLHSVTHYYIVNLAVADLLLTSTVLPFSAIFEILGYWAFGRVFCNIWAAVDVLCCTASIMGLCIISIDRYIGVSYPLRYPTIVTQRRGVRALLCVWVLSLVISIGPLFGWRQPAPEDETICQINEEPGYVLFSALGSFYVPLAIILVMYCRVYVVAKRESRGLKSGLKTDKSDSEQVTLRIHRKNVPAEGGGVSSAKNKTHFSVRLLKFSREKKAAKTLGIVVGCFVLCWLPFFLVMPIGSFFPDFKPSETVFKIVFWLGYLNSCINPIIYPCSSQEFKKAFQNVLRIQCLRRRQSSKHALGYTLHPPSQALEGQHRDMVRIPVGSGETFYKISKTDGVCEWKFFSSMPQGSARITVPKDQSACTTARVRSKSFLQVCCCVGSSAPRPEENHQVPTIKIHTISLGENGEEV
Description: Displacement of [3H]-Prazosin from adrenergic alpha1 receptor in rat cortex after 30 mins by scintillation counting

[18] = system: Mus musculus; assay: Toxicity in Swiss albino mouse assessed as locomotor activity at 5 to 20 mg/kg, ip measured after 2 to 6 mins; assay type: organism-based; design: route intraperitoneal; conditions: in vivo
[19] = molecular target: T2, 5-hydroxytryptamine receptor 7; remark: listed apart in the source
[20] = system: Mus musculus; assay: Antipsychotic activity in Swiss albino mouse assessed as inhibition of apomorphine-induced climbing behavior at 1.25 mg/kg, ip administered 10 mins before apomorphine-challenge measured after 2 mins; assay type: functional; conditions: route intraperitoneal
[21] = system: Mus musculus; assay: Antidepressant activity in Swiss albino mouse assessed as reduction of immobility time at 5 mg/kg, ip measured during last 4 mins of a 6 mins test session by forced swim test; assay type: functional; design: scale not given: the % may be the effect or the level left; conditions: route intraperitoneal
[22] = molecular target: T3, 5-hydroxytryptamine receptor 6
Description: as §1

[23] = molecular target: T1, 5-hydroxytryptamine receptor 1A; remark: listed apart in the source
[24] = system: Mus musculus; assay: Antipsychotic activity in CD1 mouse assessed as inhibition MK-801-evoked hyperactivity at 10 to 20 mg/kg, ip after 30 mins; assay type: functional, organism-based
[25] = system: Mus musculus; assay: Toxicity in Swiss albino mouse assessed as locomotor activity at 20 mg/kg, ip measured after 2 to 6 mins; assay type: organism-based; design: dose 20 mg/kg, route intraperitoneal; conditions: in vivo
[26] = system: Mus musculus; assay: Toxicity in CD1 mouse assessed as increase of MK-801-evoked hyperactivity at 10 mg/kg, ip after 30 mins; assay type: organism-based; design: dose 10 mg/kg, route intraperitoneal; conditions: in vivo, 0.5 h
[27] = system: Mus musculus; assay: Antipsychotic activity in Swiss albino mouse assessed as inhibition of apomorphine-induced climbing behavior at 2.5 mg/kg, ip administered 10 mins before apomorphine-challenge measured after 2 mins; assay type: functional, organism-based; design: dose 2.5 mg/kg
[28] = system: Mus musculus; assay: Toxicity in CD1 mouse assessed as increase of MK-801-evoked hyperactivity at 20 mg/kg, ip after 30 mins; assay type: organism-based; design: dose 20 mg/kg, route intraperitoneal; conditions: in vivo, 0.5 h

Row | Structure (SMILES) | Ki [1] | Ki [2] | Ki [3] | Ki [4] | inhibition [5] | IC50 [8] | Ki [9] | EC50 [11] | inhibition [12] | Ki [15] | Ki [17] | inhibition in vivo at 5 mg/kg [6] | Activity [7] | ED50 [10] | ED50 [13] | Activity [14] | Activity [18] | further results
1 | O=S(=O)(NCCCN1CCN(c2cccc(Cl)c2Cl)CC1)c1cnc2ccc(Cl)cc2c1 | 23 nM | 46 nM | 901 nM | 115 nM |  |  |  |  |  |  |  |  |  |  |  |  |  | 
2 | O=S(=O)(NCCCN1CCN(c2cccc(Cl)c2Cl)CC1)c1ccc2ncccc2c1 | 25 nM | 31 nM | 326 nM | 65 nM |  |  |  |  |  |  |  |  |  |  |  |  |  | 
3 | CSc1ccc2c(c1)C(CCN)=CC2 [METHIOTHEPINE] |  |  |  |  |  | 2.2 nM |  |  |  |  |  |  |  |  |  |  |  | 
4 | O=S(=O)(NCCCCN1CCN(c2cccc(Cl)c2Cl)CC1)c1cncc2ccccc12 | 59 nM | 21 nM | 220 nM | 90 nM | 95% | 820 nM | 783 nM | 15000 nM | 93% | 8 nM | 160 nM | 44.6% | 44% | 11.3 mg/kg | 5.3 mg/kg |  | Non-toxic | inhibition [24]: Active
5 | O=S(=O)(NCCCCN1CCN(c2cccc(Cl)c2Cl)CC1)c1ccc2cccnc2c1 |  |  |  | 22 nM | 101% | 3800 nM | 788 nM | 865 nM | 99% | 11 nM | 136 nM | 43.6% | 41% | 19.9 mg/kg | 4.58 mg/kg | 48% |  | Ki [19]: 31 nM; Activity [25]: Toxic; Ki [22]: 301 nM; Activity [26]: Toxic; Ki [23]: 17 nM
6 | O=S(=O)(NCCCCN1CCN(c2cccc(Cl)c2Cl)CC1)c1cnc2ccc(Cl)cc2c1 | 88 nM | 41 nM | 555 nM | 42 nM |  |  |  |  |  |  |  |  |  |  |  |  |  | 
7 | O=S(=O)(NCCCN1CCN(c2cccc(Cl)c2Cl)CC1)c1ccc2cccnc2c1 |  |  |  | 47 nM | 99% | 2800 nM | 224 nM | 7400 nM | 90% | 16 nM | 186 nM | 50.5% |  |  | 10.2 mg/kg | 79% | Non-toxic | Ki [19]: 12 nM; Activity [27]: Active; Activity [21]: 57%; Ki [22]: 257 nM; Ki [23]: 14 nM; Activity [28]: Toxic

More lines, in order of falling Ki [4], values ahead:

Row | Ki [1] | Ki [2] | Ki [3] | Ki [4] | inhibition [5] | IC50 [8] | Ki [9] | EC50 [11] | inhibition [12] | Ki [15] | Ki [17] | Structure (SMILES) | inhibition in vivo at 5 mg/kg [6] | Activity [7] | ED50 [10] | ED50 [13] | Activity [14] | Activity [18] | further results
8 |  |  |  | 35 nM | 98% | 5600 nM | 335 nM | 15500 nM | 95% | 17 nM | 255 nM | O=S(=O)(NCCCCN1CCN(c2cccc(Cl)c2Cl)CC1)c1cc2ccccc2cn1 |  | 83% | 19.9 mg/kg | 9.03 mg/kg | 53% | Non-toxic | Ki [19]: 56 nM; inhibition in vivo at 1.25 mg/kg [20]: 49.1%; Activity [21]: 43%; Ki [22]: 454 nM; Ki [23]: 34 nM; inhibition [16]: inactive
9 | 23 nM | 30 nM | 1330 nM | 34 nM | 99% | 7800 nM | 1200 nM | 1650 nM | 94% | 9 nM | 170 nM | O=S(=O)(NCCCCN1CCN(c2cccc(Cl)c2Cl)CC1)c1cnc2ccccc2c1 | 49.3% | 30% | 20.7 mg/kg | 20.2 mg/kg | 31% | Non-toxic | inhibition [16]: inactive
10 | 112 nM | 27 nM | 598 nM | 29 nM |  |  |  |  |  |  |  | O=S(=O)(NCCCCN1CCN(c2cccc(Cl)c2Cl)CC1)c1cccc2cccnc12 |  |  |  |  |  |  | 
11 | 79 nM | 124 nM | 484 nM | 23 nM |  |  |  |  |  |  |  | O=S(=O)(NCCCCN1CCN(c2cccc(Cl)c2Cl)CC1)c1ccc2ncccc2c1 |  |  |  |  |  |  | 
